Laboratory results from paper PMC5571522, “Cryptotanshinone inhibition of mammalian target of rapamycin pathway is dependent on oestrogen receptor alpha in breast cancer” (Journal of Cellular and Molecular Medicine, 2017).
pEC50: −log10 of the molar value.

Molecular target: T1, oestrogen receptor alpha (ERα) (Homo sapiens, UniProt P03372)
T1 construct: gene ESR1
Assay: HitHunter Estrogen Assay Kit competitive binding (enzyme fragment complementation); supported by ERE-luciferase inhibition in MCF-7 cells

T1 sequence (P03372 whole entry): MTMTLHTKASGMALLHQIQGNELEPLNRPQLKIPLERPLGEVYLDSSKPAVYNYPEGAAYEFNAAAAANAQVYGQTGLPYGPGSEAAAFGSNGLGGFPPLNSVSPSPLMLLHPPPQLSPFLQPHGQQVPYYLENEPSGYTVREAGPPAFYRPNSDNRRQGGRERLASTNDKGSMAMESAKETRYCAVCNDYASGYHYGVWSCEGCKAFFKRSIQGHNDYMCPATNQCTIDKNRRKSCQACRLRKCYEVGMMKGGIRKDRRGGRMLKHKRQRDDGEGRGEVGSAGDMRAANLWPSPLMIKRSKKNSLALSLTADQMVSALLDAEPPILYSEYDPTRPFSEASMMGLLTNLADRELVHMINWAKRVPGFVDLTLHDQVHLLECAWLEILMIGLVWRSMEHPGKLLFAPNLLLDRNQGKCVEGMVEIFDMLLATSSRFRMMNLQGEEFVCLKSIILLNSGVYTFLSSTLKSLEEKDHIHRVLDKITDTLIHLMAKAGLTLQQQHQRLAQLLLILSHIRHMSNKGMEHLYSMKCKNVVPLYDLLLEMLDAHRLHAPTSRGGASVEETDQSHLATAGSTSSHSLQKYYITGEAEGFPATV

In the case of `C[C@H]1COC2=C1C(=O)C(=O)c1c2ccc2c1CCCC2(C)C` [CPT, Cryptotanshinone], the pEC50 was roughly 8.01.
